US20050009840A1 (SUGEN, INC., priority 2003, published 2005)

Each compound was assayed against T1, Met kinase domain (GST fusion protein) (Homo sapiens, UniProt P08581) (assay: Met transphosphorylation assay (ELISA, poly(glu-tyr) substrate)). Settings: read-out: Met IC50.
T1 construct: Purified GST fusion protein containing the Met kinase domain
Assay type: biochemical
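Further: Cell-free ELISA with plate-bound poly(Glu:Tyr 4:1) phosphorylated by GST-fused Met kinase domain plus ATP and Mn2+, phosphotyrosine detected by anti-phosphotyrosine antibody with HRP and ABTS read-out.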
Procedure: General procedure is as follows: a compound is introduced to cells expressing the test kinase, either naturally or recombinantly, for a selected period of time after which, if the test kinase is a receptor, a ligand known to activate the receptor is added. The cells are lysed and the lysate is transferred to the wells of an ELISA plate previously coated with a specific antibody recognizing the substrate of the enzymatic phosphorylation reaction. Non-substrate components of the cell lysate are washed away and the amount of phosphorylation on the substrate is detected with an antibody specifically recognizing phosphotyrosine compared with control cells that were not contacted with a test compound.
Met Transphosphorylation Assay
This assay is used to measure phosphotyrosine levels on a poly(glutamic acid:tyrosine, 4:1) substrate as a means for identifying agonists/antagonists of met transphosphorylation of the substrate.
PBS, Gibco Catalog # 450-1300EB • 4. 50 mM HEPES • 5. […] Purified GST fusion protein containing the Met kinase domain, SUGEN, Inc. • 7. TBST Buffer. • 8. 10% aqueous (MilliQue H2O) DMSO. • 9. […] 2× Kinase Dilution Buffer: for 100 mL, mix 10 mL 1M HEPESat pH 7.5 with 0.4 mL 5% BSA/PBS, 0.2 mL 0.1 M sodium orthovanadate and 1 mL 5M sodium chloride in 88.4 mL dH2O. • 11. 4× ATP Reaction Mixture: for 10 mL, mix 0.4 mL 1 M manganese chloride and 0.02 mL 0.1 M ATP in 9.56 mL dH2O. • 12. 4× Negative Controls Mixture: for 10 mL, mix 0.4 mL 1 M manganese chloride in 9.6 mL dH2O. • 13. […] 500 mM EDTA. • 15. Antibody Dilution Buffer: for 100 mL, mix 10 mL 5% BSA/PBS, 0.5 mL 5% Carnation® Instant Milk in PBS and 0.1 mL 0.1 M sodium orthovanadate in 88.4 mL TBST. • 16. Rabbit polyclonal antophosphotyrosine antibody, SUGEN, Inc. • 17. Goat anti-rabbit horseradish peroxidase conjugated antibody, Biosource, Inc. • 18. ABTS Solution: for 1 L, mix 19.21 g citric acid, 35.49 g Na2HPO4 and 500 mg ABTS with sufficient dH2O to make 1 L. • 19. ABTS/H2O2: mix 15 mL ABST solution with 2μL H2O2 five minutes before use. • 20. 0.2 M HCl Procedure: • 1. Coat ELISA plates with 2 μg Poly(Glu-Tyr) in 100 μL PBS, hold-overnight at 4° C. • 2. Block plate with 150 μL of 5% BSA/PBS for 60 min. • 3. Wash plate twice with PBS then once with 50 mM Hepes buffer pH 7.4. • 4. Add 50 μl of the diluted kinase to all wells. (Purified kinase is diluted with Kinase Dilution Buffer. Final concentration should be 10 ng/well.) • 5. Add 25 μL of the test compound (in 4% DMSO) or DMSO alone (4% in dH2O) for controls to plate. • 6. Incubate the kinase/compound mixture for 15 minutes. • 7. Add 25 μL of 40 mM MnCl2 to the negative control wells. • 8. Add 25 μL ATP/MnCl2 mixture to the all other wells (except the negative controls). Incubate for 5 min. • 9. Add 25 μL 500 mM EDTA to stop reaction. • 10. Wash plate 3× with TBST. • 11. Add 100 μL rabbit polyclonal anti-Ptyr diluted 1:10,000 in Antibody Dilution Buffer to each well. Incubate, with shaking, at room temperature for one hour. • 12. Wash plate 3× with TBST. • 13. […] Add 100 μL per well and incubate at room temperature, with shaking, for one hour. • 14. Wash plate 1× with PBS. • 15. Add 100 μl of ABTS/H2O2 solution to each well. • 16. If necessary, stop the development reaction with the addition of 100 μl of 0.2M HCl per well. • 17.

T1 sequence (P08581 1078-1345 limits assumed): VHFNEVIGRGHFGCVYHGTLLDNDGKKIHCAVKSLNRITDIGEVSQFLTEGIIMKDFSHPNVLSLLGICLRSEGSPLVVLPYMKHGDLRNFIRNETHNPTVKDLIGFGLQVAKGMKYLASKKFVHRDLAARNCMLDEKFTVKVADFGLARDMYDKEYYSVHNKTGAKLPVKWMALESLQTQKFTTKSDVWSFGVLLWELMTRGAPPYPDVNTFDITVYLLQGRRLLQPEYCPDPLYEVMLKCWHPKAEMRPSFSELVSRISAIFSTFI

Compound	IC50 [nM]
Nc1ncc(-c2cccc(C(=O)NCCN3CCCC3)c2)nc1OCc1c(F)ccc(F)c1Cl [II-55, 3-[5-Amino-6-(2-chloro-3,6-difluoro-benzyloxy)-pyrazin-2-yl]-N-(2-pyrrolidin-1-yl-ethyl)-benzamide]	1600
Nc1ncc(-c2cccc(C(=O)N3CCC[C@H]3CN3CCCC3)c2)nc1OCc1c(F)ccc(F)c1Cl [II-57, {3-[5-Amino-6-(2-chloro-3,6-difluoro-benzyloxy)-pyrazin-2-yl]-phenyl}-[(2S)-pyrrolidin-1-ylmethyl-pyrrolidin-1-yl]-methanone]	630
Nc1ncc(-c2cccc(C(=O)NCCN3CCOCC3)c2)nc1OCc1c(F)ccc(F)c1Cl [II-58, 3-[5-Amino-6-(2-chloro-3,6-difluoro-benzyloxy)-pyrazin-2-yl]-N-(2-morpholin-4-yl-ethyl)-benzamide]	2500
CC(=O)N1CCN(CCNC(=O)c2cccc(-c3cnc(N)c(OCc4c(F)ccc(F)c4Cl)n3)c2)CC1 [II-59, N-[2-(4-Acetyl-piperazin-1-yl)-ethyl]-3-[5-amino-6-(2-chloro-3,6-difluoro-benzyloxy)-pyrazin-2-yl]-benzamide]	2770
Nc1ncc(-c2cccc(C(=O)NCCCN3CCCC3)c2)nc1OCc1c(F)ccc(F)c1Cl [II-60, 3-[5-Amino-6-(2-chloro-3,6-difluoro-benzyloxy)-pyrazin-2-yl]-N-(3-pyrrolidin-1-yl-pyropyl)-benzamide]	1480
Nc1ncc(-c2ccc3[nH]cc(CN4CCCC4)c3c2)nc1OCc1c(F)ccc(F)c1Cl [II-62, 3-(2-Chloro-3,6-difluoro-benzyloxy)-5-(3-pyrrolidin-1-ylmethyl-1H-indol-5-yl)-pyrazin-2-ylamine]	350
CCN(CC)Cc1c[nH]c2ccc(-c3cnc(N)c(OCc4c(F)ccc(F)c4Cl)n3)cc12 [II-63, 3-(2-Chloro-3,6-difluoro-benzyloxy)-5-(3-diethylaminomethyl-1H-indol-5-yl)-pyrazin-2-ylamine]	730
CC(=O)N1CCN(Cc2c[nH]c3ccc(-c4cnc(N)c(OCc5c(F)ccc(F)c5Cl)n4)cc23)CC1 [II-64, 1-(4-{5-[5-Amino-6-(2-chloro-3,6-difluoro-benzyloxy)-pyrazin-2-yl]-1H-indol-3-ylmethyl}-piperazin-1-yl)-ethanone]	1500
C[C@@H]1CN(Cc2c[nH]c3ccc(-c4cnc(N)c(OCc5c(F)ccc(F)c5Cl)n4)cc23)C[C@H](C)O1 [II-65, 3-(2-Chloro-3,6-difluoro-benzyloxy)-5-[3-(2,6-dimethyl-morpholin-4-ylmethyl)-1H-indol-5-yl]-pyrazin-2-ylamine]	2400
CC(=O)N[C@H]1CCN(Cc2c[nH]c3ccc(-c4cnc(N)c(OCc5c(F)ccc(F)c5Cl)n4)cc23)C1 [II-66, N-(1-{5-[5-Amino-6-(2-chloro-3,6-difluoro-benzyloxy)-pyrazin-2-yl]-1H-indol-3-ylmethyl}-(3S)-pyrrolidin-3-yl)-acetamide]	550
Nc1ncc(-c2ccc3[nH]cc(CN4CCCCC4)c3c2)nc1OCc1c(F)ccc(F)c1Cl [II-67, 3-(2-Chloro-3,6-difluoro-benzyloxy)-5-(3-piperidin-1-ylmethyl-1H-indol-5-yl)-pyrazin-2-ylamine]	510
Nc1ncc(-c2ccc3[nH]cc(CN4CCOCC4)c3c2)nc1OCc1c(F)ccc(F)c1Cl [II-68, 3-(2-Chloro-3,6-difluoro-benzyloxy)-5-(3-morpholin-4-ylmethyl-1H-indol-5-yl)-pyrazin-2-ylamine]	1150
CC(C)C(Oc1nc(-c2ccc(OCCN3CCOCC3)cc2)cnc1N)c1c(F)ccc(F)c1Cl (centres unmarked) [II-69, 3-[1-(2-Chloro-3,6-difluoro-phenyl)-2-methyl-propoxy]-5-[4-(2-morpholin-4-yl-ethoxy)-phenyl]-pyrazin-2-ylamine]	10600
CC(Oc1nc(-c2ccc(OCCN3CCOCC3)cc2)cnc1N)c1c(F)ccc(F)c1Cl (centres unmarked) [II-70]	510
